Activity calls are given as the source filed them.
Experiments:
[1] = target: T1, Low molecular weight phosphotyrosine protein phosphatase (Homo sapiens, UniProt P24666); type: functional; conditions: read-out: IC50_Mean;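 note: Dose-response confirmation assay measuring inhibition of LMPTP enzyme activity by fluorescence intensity read-out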
T1 sequence (P24666 whole entry): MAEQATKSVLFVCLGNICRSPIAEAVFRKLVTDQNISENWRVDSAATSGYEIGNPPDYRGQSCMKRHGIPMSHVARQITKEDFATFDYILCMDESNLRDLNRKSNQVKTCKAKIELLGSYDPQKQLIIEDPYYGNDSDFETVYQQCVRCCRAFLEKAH

[2] = Fluorescence-based cell-based high throughput dose response assay for inhibitors of the interaction of nucleotide-binding oligomerization domain containing 2 (NOD2) and the receptor-interacting serine-threonine kinase 2 (RIPK2).; type: functional; conditions: Homo sapiens
Beta Lactamase = Beta Lactamase (Pseudomonas aeruginosa, UniProt Q932Y6); experiment: beta-lactamase reporter inhibitor potency, dose response, artefact control for NOD2-RIPK2 interaction inhibitor project, BLA reporter cells, FRET fluorescence (AID 651552); type: functional, cell-based
Fatty acid synthase [3] = target: T2, Fatty acid synthase (Homo sapiens, UniProt P49327); experiment: FAS thioesterase domain inhibitors, dose response, biochemical, endpoint fluorescence intensity, uHTS hits (AID 624327); type: functional;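 note: fluorescence from hydrolysis of an O-methyl fluorescein acyl ester substrate by the enzyme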
Fatty acid synthase [4] = target: T2, Fatty acid synthase; experiment: FAS thioesterase domain inhibitors, dose response, biochemical, kinetic fluorescence intensity (AID 624326); type: functional;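 note: rate of fluorescence rise from hydrolysis of a fluorogenic O-methyl fluorescein ester substrate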
Beta-galactosidase = Beta-galactosidase (Escherichia coli, UniProt Q8VNN2); experiment: PubChem AID 485352; type: functional
[5] = target: T3, Type-1 angiotensin II receptor (Homo sapiens, UniProt P30556); experiment: AT1 receptor antagonists, dose response, selectivity assay for APJ receptor antagonist project, cell-based, uHTS hits (AID 463214); type: functional;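 note: antagonist potency against angiotensin II stimulated AT1 response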
T3 sequence (P30556 whole entry): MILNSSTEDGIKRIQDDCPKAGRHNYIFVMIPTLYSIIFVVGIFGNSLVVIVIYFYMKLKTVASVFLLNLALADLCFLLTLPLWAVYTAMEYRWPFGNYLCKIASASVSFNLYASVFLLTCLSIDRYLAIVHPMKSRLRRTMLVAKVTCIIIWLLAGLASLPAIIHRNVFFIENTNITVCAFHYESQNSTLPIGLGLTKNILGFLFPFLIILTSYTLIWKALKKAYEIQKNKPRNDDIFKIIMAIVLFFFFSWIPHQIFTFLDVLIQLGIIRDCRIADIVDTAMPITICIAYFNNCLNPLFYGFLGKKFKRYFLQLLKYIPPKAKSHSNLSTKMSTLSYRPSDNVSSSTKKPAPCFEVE

[6] = target: Heat shock protein HSP 90-alpha (Homo sapiens, UniProt P07900); type: functional, organism-based
[7] = THP-1 cell cytotoxicity, dose response, cytotoxicity control for Vif-APOBEC3G degradation inhibitor project, THP-1 cells (AID 1117359); type: functional; conditions: Human immunodeficiency virus 1, THP-1
[8] = target: DNA repair and recombination protein RAD54-like (Homo sapiens, UniProt Q92698); experiment: inhibitors of human RAD54 branch migration, confirmation, biochemical, fluorescence, cherry-picked samples, dose series (AID 651657); type: functional
H9c2 = experiment: cells; type: functional, cell-based; conditions: Rattus norvegicus, H9c2, Myocardium;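 note: confirmatory concentration-response retest of ultra-high-throughput screening hits for modulation of myocardial damage; cell death induced by hydrogen peroxide oxidative stress; compound pretreatment for 60 min then peroxide exposure for 2 h; potency is for protecting the cells against peroxide damage rather than for killing them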
Melanocortin receptor 4 = Melanocortin receptor 4 (Homo sapiens, UniProt P32245); type: functional, cell-based;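 note: Cell-based assay with luminescence read-out, confirmatory dose-response testing for agonist activity of biased ligands at MC4R; human U2OS cells with tagged receptor and beta-arrestin; potency of agonists that increase receptor coupling to beta-arrestin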
[9] = target: Adenosylmethionine-8-amino-7-oxononanoate aminotransferase (Mycobacterium tuberculosis, UniProt P9WQ81); experiment: Mycobacterium tuberculosis BioA enzyme inhibitor Measured in Biochemical System Using Plate Reader - 2163-02_Inhibitor_Dose_CherryPick_Activity.; type: functional, Mycobacterium tuberculosis UT205
Cytochrome P450 2C19 = Cytochrome P450 2C19 (Homo sapiens, UniProt P33261); experiment: Cytochrome panel assay with activity outcomes. Panel member name: p450-cyp2c19 Compounds with AC50 equal or less than 10 uM are considered active; type: functional; conditions: read-out: AC50
Cytochrome P450 1A2 = target: T4, Cytochrome P450 1A2 (Homo sapiens, UniProt P05177);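 note: PubChem cytochrome P450 panel assay, CYP1A2 panel member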
T4 sequence (P05177 whole entry): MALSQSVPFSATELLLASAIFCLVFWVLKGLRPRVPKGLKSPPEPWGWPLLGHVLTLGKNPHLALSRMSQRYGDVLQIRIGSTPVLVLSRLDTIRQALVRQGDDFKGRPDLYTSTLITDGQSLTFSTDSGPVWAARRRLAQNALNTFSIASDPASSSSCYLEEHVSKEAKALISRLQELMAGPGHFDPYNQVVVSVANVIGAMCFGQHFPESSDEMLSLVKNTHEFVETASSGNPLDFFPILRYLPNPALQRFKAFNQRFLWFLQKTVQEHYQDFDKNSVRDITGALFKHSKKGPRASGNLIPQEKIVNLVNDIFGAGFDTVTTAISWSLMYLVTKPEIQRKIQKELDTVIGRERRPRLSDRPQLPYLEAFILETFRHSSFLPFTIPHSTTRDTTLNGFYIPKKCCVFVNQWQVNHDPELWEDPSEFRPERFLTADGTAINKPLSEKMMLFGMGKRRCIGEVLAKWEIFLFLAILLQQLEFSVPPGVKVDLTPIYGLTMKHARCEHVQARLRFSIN

BJ [10] = experiment: cells; type: functional, cell-based; conditions: Homo sapiens
[11] = growth suppression of PTEN-null colon cells, dose response, cell-based, HCT116 PTEN knockout (AID 1047); type: functional;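 note: HCT116 colon tumor cells with PTEN knocked out; cells exposed to compound for 60 hours before readout; potency for loss of cell viability measured by luminescence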
[12] = growth suppression of beta-catenin-knockout colon cells, dose response, cell-based, HCT116, human colon tumor (AID 1045); type: functional;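 note: HCT116 colon tumor cells with beta catenin knocked out; cells exposed to compound for 60 hours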
BJ [13] = experiment: cytotoxicity toward BJ-TERT-LT-ST fibroblasts, dose response, cell-based, RAS-independent, luminescence (AID 1935); type: functional; conditions: Homo sapiens;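 note: BJ fibroblasts immortalized with TERT plus LT and ST oncogenes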
[14] = cytotoxicity toward DRD oncogenic fibroblasts, dose response, cell-based, non-viral oncogenic, luminescence (AID 1934); type: functional; conditions: Homo sapiens
[15] = THP-1 cell cytotoxicity, dose response, cytotoxicity control for non-replicating M. tuberculosis project (AID 489025); type: functional
[16] = HepG2 cell cytotoxicity, dose response, cytotoxicity control for non-replicating M. tuberculosis project (AID 489018); type: functional; conditions: Mycobacterium tuberculosis
[17] = Vero E6 cell cytotoxicity, dose response, cytotoxicity control for non-replicating M. tuberculosis project, secondary assay (AID 492998); type: functional, VeroE6; conditions: Vero C1008
[18] = target: Neurotensin receptor type 1 (Homo sapiens, UniProt P30989); type: functional;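 note: Image-based confirmatory dose-response assay measuring agonist activity at NTR1; NTR1-expressing U2OS osteosarcoma cells imaged for beta-arrestin GFP spot formation; agonist potency where compounds increase beta-arrestin recruitment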
cells = type: functional
[19] = target: T5, Replicative DNA helicase DnaB (Mycobacterium tuberculosis, UniProt P9WMR3); experiment: DnaB intein splicing inhibitors, dose response, biochemical, cell-free fluorescence (AID 449749); type: functional
T5 sequence (P9WMR3 whole entry): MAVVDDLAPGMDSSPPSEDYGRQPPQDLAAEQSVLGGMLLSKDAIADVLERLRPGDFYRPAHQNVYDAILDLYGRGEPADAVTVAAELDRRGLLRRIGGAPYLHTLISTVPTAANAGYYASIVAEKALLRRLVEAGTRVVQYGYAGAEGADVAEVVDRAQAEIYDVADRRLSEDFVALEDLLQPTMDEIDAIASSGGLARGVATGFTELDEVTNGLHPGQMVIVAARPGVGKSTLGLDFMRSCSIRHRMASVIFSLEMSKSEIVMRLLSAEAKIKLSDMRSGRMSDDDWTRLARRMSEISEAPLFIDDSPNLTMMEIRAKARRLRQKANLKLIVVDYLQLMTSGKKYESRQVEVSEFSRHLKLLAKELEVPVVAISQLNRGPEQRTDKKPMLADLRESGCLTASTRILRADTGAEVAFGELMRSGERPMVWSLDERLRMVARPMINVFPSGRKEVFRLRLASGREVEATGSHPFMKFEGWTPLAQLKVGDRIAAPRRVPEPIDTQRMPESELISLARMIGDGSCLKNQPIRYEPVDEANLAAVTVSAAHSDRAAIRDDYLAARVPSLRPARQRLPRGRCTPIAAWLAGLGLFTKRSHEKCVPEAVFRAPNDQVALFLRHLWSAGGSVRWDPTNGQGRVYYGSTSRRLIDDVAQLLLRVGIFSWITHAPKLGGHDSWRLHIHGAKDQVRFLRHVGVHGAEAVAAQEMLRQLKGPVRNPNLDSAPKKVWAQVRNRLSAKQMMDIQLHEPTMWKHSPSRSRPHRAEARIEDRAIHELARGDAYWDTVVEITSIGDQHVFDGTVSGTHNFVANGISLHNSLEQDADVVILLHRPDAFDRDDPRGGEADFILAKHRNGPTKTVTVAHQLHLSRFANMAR

Vero = Vero cell cytotoxicity, cytotoxicity control for flavivirus capping enzyme inhibitors (AID 588742); type: functional; conditions: Chlorocebus sabaeus
Protein RecA = target: T6, Protein RecA (Mycobacterium tuberculosis, UniProt P9WHJ3); experiment: Fluorescence Cell-Free Homogeneous Dose Retest to Identify Inhibitors of RecA-Intein Splicing Activity. [Related pubchem assays (depositor defined):AID2097, AID2223, AID489010, AID492950]; type: functional
T6 sequence (P9WHJ3 whole entry): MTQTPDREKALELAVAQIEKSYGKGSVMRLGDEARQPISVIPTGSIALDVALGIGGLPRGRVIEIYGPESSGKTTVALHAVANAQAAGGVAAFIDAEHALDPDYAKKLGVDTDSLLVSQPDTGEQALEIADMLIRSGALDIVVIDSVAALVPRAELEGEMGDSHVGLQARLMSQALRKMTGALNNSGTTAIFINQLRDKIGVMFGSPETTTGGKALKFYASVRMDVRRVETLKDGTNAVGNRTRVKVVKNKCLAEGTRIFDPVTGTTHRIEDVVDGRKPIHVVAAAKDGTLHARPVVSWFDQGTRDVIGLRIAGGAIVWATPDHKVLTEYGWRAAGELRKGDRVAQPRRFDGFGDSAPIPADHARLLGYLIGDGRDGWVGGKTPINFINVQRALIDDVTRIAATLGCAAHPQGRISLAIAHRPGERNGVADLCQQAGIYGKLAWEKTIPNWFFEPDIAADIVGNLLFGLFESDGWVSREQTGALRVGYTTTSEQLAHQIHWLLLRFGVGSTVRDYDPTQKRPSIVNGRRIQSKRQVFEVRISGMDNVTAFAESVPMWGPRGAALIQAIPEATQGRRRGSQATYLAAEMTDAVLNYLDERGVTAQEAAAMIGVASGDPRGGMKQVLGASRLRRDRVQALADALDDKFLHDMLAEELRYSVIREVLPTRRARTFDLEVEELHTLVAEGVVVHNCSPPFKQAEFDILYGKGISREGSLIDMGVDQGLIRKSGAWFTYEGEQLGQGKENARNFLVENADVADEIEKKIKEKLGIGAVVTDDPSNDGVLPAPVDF

INS1 = experiment: beta cell apoptosis inhibitors, cytokine rescue, dose response, luminescence, retest (AID 449756); type: functional, cell-based; conditions: Rattus norvegicus;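 note: cell death triggered by IL-1 beta plus TNF-alpha plus IFN-gamma mixture; protective hits raise ATP signal compared with cytokine alone wells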
Genome polyprotein = Genome polyprotein (dengue virus type 2, UniProt P29990); experiment: Dengue-2 NS5 methyltransferase inhibitors, primary screen, biochemical, confirmation dose response (AID 588689); type: functional
Chain of Genome polyprotein (P29990 2492-3391 limits assumed): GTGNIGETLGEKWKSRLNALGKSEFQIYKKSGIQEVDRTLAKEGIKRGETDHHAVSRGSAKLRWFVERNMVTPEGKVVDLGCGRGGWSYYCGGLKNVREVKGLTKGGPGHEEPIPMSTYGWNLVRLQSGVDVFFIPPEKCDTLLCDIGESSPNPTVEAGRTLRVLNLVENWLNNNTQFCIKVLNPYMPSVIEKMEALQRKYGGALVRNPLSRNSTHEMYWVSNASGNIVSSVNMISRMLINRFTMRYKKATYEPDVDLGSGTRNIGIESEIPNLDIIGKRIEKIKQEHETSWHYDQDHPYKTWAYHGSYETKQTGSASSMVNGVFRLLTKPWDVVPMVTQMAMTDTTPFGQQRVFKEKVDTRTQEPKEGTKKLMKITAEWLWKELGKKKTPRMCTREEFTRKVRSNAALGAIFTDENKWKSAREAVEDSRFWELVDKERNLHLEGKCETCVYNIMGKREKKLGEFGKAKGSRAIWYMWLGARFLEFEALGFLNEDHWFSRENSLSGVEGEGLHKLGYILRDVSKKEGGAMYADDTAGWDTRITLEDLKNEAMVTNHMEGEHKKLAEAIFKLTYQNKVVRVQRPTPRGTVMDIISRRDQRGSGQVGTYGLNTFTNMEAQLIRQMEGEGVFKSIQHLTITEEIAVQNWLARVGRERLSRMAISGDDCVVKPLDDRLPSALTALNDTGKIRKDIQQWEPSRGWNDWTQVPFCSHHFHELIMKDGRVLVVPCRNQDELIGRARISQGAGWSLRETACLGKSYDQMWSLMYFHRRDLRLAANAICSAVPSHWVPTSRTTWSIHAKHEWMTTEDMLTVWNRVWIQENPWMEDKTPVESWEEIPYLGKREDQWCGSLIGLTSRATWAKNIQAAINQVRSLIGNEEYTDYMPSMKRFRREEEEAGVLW

T2 sequence (P49327 whole entry, the tested form may be a part): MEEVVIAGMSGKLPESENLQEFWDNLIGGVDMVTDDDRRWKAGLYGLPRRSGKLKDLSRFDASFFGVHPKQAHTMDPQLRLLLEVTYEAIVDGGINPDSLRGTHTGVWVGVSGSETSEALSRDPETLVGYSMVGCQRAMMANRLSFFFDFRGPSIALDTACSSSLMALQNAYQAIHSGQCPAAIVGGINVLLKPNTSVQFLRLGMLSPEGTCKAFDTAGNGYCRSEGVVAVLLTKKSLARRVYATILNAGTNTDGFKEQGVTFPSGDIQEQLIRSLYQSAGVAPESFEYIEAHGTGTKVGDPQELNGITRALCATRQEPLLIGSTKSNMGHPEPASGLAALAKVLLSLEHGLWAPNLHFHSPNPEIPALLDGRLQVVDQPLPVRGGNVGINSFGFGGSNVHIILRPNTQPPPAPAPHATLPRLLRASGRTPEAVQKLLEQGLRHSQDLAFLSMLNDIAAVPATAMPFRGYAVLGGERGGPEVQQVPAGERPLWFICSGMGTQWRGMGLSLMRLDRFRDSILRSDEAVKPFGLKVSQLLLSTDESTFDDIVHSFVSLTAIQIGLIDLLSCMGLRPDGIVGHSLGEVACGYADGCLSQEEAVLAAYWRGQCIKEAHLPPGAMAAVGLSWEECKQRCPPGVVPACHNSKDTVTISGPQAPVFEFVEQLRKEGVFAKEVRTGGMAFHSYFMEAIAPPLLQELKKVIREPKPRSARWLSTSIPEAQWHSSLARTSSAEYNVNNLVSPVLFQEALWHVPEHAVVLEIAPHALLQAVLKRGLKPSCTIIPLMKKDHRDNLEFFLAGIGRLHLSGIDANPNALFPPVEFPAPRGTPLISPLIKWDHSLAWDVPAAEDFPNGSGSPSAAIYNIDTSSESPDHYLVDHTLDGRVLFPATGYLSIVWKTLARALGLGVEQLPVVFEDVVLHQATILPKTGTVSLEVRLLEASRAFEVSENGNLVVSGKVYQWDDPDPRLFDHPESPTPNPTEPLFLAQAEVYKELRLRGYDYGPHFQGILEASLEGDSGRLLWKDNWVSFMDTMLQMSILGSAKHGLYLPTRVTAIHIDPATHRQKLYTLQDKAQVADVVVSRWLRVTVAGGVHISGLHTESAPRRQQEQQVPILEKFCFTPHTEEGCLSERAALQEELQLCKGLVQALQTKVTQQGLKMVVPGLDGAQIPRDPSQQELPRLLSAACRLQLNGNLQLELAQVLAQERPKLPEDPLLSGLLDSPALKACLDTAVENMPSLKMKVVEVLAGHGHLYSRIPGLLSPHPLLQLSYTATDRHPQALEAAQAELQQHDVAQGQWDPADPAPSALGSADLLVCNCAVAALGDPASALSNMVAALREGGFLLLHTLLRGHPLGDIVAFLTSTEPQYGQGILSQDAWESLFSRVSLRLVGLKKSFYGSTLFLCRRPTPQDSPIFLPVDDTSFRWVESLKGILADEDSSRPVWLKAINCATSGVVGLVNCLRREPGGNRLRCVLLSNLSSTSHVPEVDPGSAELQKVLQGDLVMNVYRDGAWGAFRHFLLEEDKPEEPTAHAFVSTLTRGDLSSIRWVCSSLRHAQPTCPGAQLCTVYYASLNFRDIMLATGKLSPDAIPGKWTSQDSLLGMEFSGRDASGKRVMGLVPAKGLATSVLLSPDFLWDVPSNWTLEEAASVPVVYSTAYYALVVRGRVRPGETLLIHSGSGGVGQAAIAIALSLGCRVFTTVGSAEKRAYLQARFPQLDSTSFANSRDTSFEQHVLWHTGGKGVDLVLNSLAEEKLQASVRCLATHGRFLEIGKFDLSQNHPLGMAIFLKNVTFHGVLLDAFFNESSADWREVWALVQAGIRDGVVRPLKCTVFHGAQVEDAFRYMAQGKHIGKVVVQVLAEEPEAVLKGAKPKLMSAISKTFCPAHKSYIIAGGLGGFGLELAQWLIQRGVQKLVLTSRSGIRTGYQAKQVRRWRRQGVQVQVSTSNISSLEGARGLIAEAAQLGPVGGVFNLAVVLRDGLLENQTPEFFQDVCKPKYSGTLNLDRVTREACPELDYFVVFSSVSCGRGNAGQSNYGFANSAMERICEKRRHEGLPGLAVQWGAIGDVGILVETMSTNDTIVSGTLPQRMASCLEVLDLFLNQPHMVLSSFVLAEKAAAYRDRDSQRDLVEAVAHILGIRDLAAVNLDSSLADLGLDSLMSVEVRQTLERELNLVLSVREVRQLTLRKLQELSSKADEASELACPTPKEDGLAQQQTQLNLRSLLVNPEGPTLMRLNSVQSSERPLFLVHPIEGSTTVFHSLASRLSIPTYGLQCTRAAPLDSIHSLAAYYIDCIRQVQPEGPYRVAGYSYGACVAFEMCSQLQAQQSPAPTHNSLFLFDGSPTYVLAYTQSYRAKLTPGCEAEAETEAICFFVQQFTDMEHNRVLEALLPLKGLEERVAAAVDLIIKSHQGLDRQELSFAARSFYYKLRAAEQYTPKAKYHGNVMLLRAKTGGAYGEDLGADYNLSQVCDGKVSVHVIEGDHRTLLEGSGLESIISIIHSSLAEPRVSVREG
Chain of Adenosylmethionine-8-amino-7-oxononanoate aminotransferase (P9WQ81 whole entry): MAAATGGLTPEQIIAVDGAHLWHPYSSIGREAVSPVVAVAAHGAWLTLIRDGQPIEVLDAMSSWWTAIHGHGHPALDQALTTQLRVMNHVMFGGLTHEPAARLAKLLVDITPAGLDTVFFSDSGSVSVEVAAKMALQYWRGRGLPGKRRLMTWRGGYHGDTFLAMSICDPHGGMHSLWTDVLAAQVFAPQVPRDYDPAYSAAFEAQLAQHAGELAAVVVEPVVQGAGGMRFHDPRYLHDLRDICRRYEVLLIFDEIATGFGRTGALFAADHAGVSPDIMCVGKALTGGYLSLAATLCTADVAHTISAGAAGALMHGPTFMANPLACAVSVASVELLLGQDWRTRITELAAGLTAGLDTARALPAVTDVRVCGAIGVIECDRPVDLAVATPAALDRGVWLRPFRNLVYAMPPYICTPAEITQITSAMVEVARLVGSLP
Chain of Beta Lactamase (Q932Y6 whole entry, the tested form may be a part): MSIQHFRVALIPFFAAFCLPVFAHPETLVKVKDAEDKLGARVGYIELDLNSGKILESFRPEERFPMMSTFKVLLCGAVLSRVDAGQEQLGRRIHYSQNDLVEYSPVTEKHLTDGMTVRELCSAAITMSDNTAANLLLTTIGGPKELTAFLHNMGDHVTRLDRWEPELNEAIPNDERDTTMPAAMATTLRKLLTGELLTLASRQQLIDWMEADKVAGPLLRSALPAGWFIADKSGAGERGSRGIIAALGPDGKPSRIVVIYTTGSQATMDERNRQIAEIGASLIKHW
Chain of Melanocortin receptor 4 (P32245 whole entry): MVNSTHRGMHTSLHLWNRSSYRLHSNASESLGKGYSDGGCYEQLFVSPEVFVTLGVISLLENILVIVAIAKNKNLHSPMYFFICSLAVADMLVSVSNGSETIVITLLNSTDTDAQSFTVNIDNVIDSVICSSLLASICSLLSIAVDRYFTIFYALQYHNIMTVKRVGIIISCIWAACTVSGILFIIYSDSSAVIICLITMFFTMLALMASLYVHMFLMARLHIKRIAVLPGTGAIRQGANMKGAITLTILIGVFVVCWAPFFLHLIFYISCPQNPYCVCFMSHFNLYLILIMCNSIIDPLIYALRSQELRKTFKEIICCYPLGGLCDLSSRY
Chain of Cytochrome P450 2C19 (P33261 whole entry): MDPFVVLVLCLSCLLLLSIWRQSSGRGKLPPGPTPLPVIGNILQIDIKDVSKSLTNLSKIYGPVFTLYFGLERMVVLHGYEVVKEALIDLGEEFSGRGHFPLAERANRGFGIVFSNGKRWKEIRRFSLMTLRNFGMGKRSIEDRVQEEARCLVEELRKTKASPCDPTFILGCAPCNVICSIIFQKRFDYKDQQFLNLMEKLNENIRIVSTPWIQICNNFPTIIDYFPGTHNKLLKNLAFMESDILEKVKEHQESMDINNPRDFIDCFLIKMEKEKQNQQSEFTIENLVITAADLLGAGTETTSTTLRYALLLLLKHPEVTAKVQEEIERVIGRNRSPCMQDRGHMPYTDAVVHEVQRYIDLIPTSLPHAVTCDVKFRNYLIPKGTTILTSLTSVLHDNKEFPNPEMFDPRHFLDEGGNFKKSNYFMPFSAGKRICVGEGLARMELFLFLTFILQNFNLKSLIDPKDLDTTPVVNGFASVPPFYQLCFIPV

SMILES: CCOc1ccc(C(=O)N/N=C/c2cc([N+](=O)[O-])cs2)cc1
- IC50 [1]: 14.4 µM (active)

SMILES: CCOC(=O)[C@]12Cc3cc(C)ccc3[C@H]1N(C1CCCCC1)C(=O)c1ccccc12
- IC50 [2]: 2.28 µM (active)
- IC50 (Beta Lactamase): 39 µM (inactive)
- IC50 (Fatty acid synthase [3]): 6.98 µM (active)
- IC50 (Fatty acid synthase [4]): 6.17 µM (active)

SMILES: Cc1ccc(C(C[N+](=O)[O-])Sc2ccc(N)cc2)cc1 (stereo not given)
- EC50 (Beta-galactosidase): 31.3 µM (active)
- IC50 [5]: 16.9 µM (active)
- AC50 [6]: 4.99 µM (active)
- CC50 [7]: > 40 µM (active)

SMILES: COc1ccc(OC)c2c(C)cc(NCCN3CCOCC3)nc12
- AC50 [8]: 37.6 µM (active)

SMILES: COc1cccc(-c2cnc3c(NC(C)=O)cc(-c4cc(OC)c(OC)c(OC)c4)cn23)c1
- IC50 (H9c2): > 79 µM (inactive)
- EC50 (Melanocortin receptor 4): > 89.2 µM (inactive)

SMILES: Cc1cccc(-n2c(SCC(=O)N(C)C3CCS(=O)(=O)C3)nc3ccccc3c2=O)c1C (stereo not given)
- AC50 [9]: 3.13 µM (active)

SMILES: COc1ccc(COc2ccsc2C(=O)Nc2ccc(Cl)c(Cl)c2)cc1
- EC50 (Melanocortin receptor 4): > 89.2 µM (inactive)

SMILES: Cc1cc(/C=C(/C#N)C(=O)Nc2ccccc2)c(C)n1-c1cccnc1
- AC50 (Cytochrome P450 2C19): 2 µM (inconclusive)
- AC50 [9]: 0.306 µM (active)
- AC50 (Cytochrome P450 1A2): 1.78 µM (inconclusive)

SMILES: CC1=NNC(=O)/C1=C\c1cn(-c2ccccc2)nc1-c1cccs1
- EC50 (BJ [10]): 4.55 µM (inconclusive)
- EC50 [11]: 7.38 µM (active)
- EC50 [12]: 7.11 µM (active)
- EC50 (BJ [13]): 13 µM (active)
- EC50 [14]: 5.32 µM (active)
- CC50 [15]: 7.31 µM (active)
- CC50 [16]: 9.49 µM (active)
- CC50 [17]: 9.79 µM (active)
- EC50 [18]: 5.14 µM (active)
- IC50 (cells): 24.8 µM (active)
- AC50 [19]: 3.97 µM (active)
- AC50 [6]: 1.87 µM (active)
- CC50 (Vero): 10.9 µM (active)
- EC50 (Protein RecA): 1.44 µM (active)
- AC50 (INS1): 7.34 µM (active)
- IC50 (Genome polyprotein): > 100 µM (active)
- IC50 [2]: 1.55 µM (active)
- IC50 (Beta Lactamase): 49.8 µM (inactive)

— ChEMBL document CHEMBL1201862, “PubChem BioAssay data set” (2004)
